The assay concerns M. tuberculosis. In words: microbe, parasite or virus in culture. As to conditions: Mycobacterium tuberculosis, 120 h; read-out: QUM (MIC80). The assay is classed as cell-based.

Each structure is given as a SMILES string. ≈ marks a conversion by molar mass, not a printed value.

On to `CCc1nc2ccc(Br)cn2c1C(=O)NCc1ccc(N2CCC(c3ccccc3)CC2)cc1` [Compound 1], for which the MIC80 is under 1 µM.

As to `CCc1nc2ccc(Br)cn2c1C(=O)NCc1ccc(N2CCC(c3ccc(OC)cc3)CC2)cc1` [Compound 2], the MIC80 was under 1 µM.

As for `CCc1nc2cc(C(F)(F)F)ccn2c1C(=O)NCc1ccc(N2CCC(c3ccccc3)CC2)cc1` [Compound 3], the MIC80 was under 1 µM.

For `CCc1nc2cc(C(F)(F)F)ccn2c1C(=O)NCc1ccc(N2CCC(c3ccc(F)cc3)CC2)cc1` [Compound 4], the MIC80 was under 1 µM.

With `CCc1nc2cc(F)ccn2c1C(=O)NCc1ccc(N2CCC(c3ccc(C)cc3)CC2)cc1` [Compound 5], the MIC80 is under 1 µM.

As for `CCc1nc2c(F)cccn2c1C(=O)NCc1ccc(N2CCC(c3ccc(C)cc3)CC2)cc1` [Compound 6], the MIC80 is under 1 µM.

In the case of `CCc1nc2ccc(Cl)cn2c1C(=O)NCc1ccc(N2CCC(c3ccc(C)cc3)CC2)cc1` [Compound 7], the MIC80 was under 1 µM.

On to `CCc1nc2c(C)cccn2c1C(=O)NCc1ccc(N2CCC(c3ccc(OC)cc3)CC2)cc1` [Compound 8], for which the MIC80 is under 1 µM.

On to `CCc1nc2ccc(C)cn2c1C(=O)NCc1ccc(N2CCN(c3ccccc3)CC2)cc1` [Compound 9], for which the MIC80 is under 1 µM.

Consider `CCc1nc2cc(OC)ccn2c1C(=O)NCc1ccc(N2CCN(c3ccc(OC(F)(F)F)cc3)CC2)cc1` [Compound 10], for which the MIC80 is under 1 µM.

For `CCc1nc2ccc(F)cn2c1C(=O)NCc1ccc(N2CCC(c3ccc(C(F)(F)F)cc3)CC2)cc1` [Compound 11], the MIC80 was under 1 µM.

Consider `CCc1nc2c(F)cccn2c1C(=O)NCc1ccc(N2CCC(c3ccc(C(F)(F)F)cc3)CC2)cc1` [Compound 12], for which the MIC80 is under 1 µM.

As for `CCc1nc2cc(Cl)ccn2c1C(=O)NCc1ccc(N2CCC(c3ccc(C(F)(F)F)cc3)CC2)cc1` [Compound 13], the MIC80 was under 1 µM.

In the case of `CCc1nc2cc(F)ccn2c1C(=O)NCc1ccc(N2CCC(c3ccc(OC)cc3)CC2)cc1` [Compound 14], the MIC80 is under 1 µM.

Take `CCc1nc2c(F)cccn2c1C(=O)NCc1ccc(N2CCC(c3ccc(OC)cc3)CC2)cc1` [Compound 15]: the MIC80 was under 1 µM.

As to `CCc1nc2ccc(Cl)cn2c1C(=O)NCc1ccc(N2CCC(c3ccc(OC)cc3)CC2)cc1` [Compound 16], the MIC80 is under 1 µM.

With `CCc1nc2cc(F)ccn2c1C(=O)NCc1ccc(N2CCC(c3ccc(Cl)cc3)CC2)cc1` [Compound 17], the MIC80 is under 1 µM.

`CCc1nc2cc(OC)ccn2c1C(=O)NCc1ccc(N2CCC(c3ccccc3)CC2)cc1` [Compound 18]: the MIC80 was under 1 µM.

`CCc1nc2ccc(C)cn2c1C(=O)NCc1ccc(N2CCC(c3ccc(F)cc3)CC2)cc1` [Compound 19]: the MIC80 was under 1 µM.

In the case of `CCc1nc2cc(OC)ccn2c1C(=O)NCc1ccc(N2CCC(c3ccc(F)cc3)CC2)cc1` [Compound 20], the MIC80 was under 1 µM.

As for `CCc1nc2cc(OC)ccn2c1C(=O)NCc1ccc(N2CCC(c3ccc(Cl)cc3)CC2)cc1` [Compound 21], the MIC80 was under 1 µM.

Turning to `CCc1nc2c(C(F)(F)F)cccn2c1C(=O)NCc1ccc(N2CCC(c3ccc(Cl)cc3)CC2)cc1` [Compound 22], the MIC80 was in the range of 1 to 20 µM (≈ 0.541 to 10.8 µg/mL).

Consider `CCc1nc2cc(OC)ccn2c1C(=O)NCc1ccc(N2CCC(c3ccc(C)cc3)CC2)cc1` [Compound 23], for which the MIC80 was under 1 µM.

For the compound `CCc1nc2cc(C(F)(F)F)ccn2c1C(=O)NCc1ccc(N2CCC(c3ccc(C)cc3)CC2)cc1` [Compound 24], the MIC80 was under 1 µM.

With `CCc1nc2c(C(F)(F)F)cccn2c1C(=O)NCc1ccc(N2CCC(c3ccc(C)cc3)CC2)cc1` [Compound 25], the MIC80 was 1 to 20 µM (≈ 0.521 to 10.4 µg/mL).

As to `CCc1nc2cc(C(F)(F)F)ccn2c1C(=O)NCc1ccc(N2CCC(c3ccc(C(F)(F)F)cc3)CC2)cc1` [Compound 26], the MIC80 was under 1 µM.

For the compound `CCc1nc2c(C(F)(F)F)cccn2c1C(=O)NCc1ccc(N2CCC(c3ccc(OC)cc3)CC2)cc1` [Compound 27], the MIC80 lay within 1 to 20 µM (≈ 0.537 to 10.7 µg/mL).

Consider `CCc1nc2ccccn2c1C(=O)NCc1ccc(N2CCN(c3ccc(C)cc3)CC2)cc1` [Compound 28], for which the MIC80 is under 1 µM.

`CCc1nc2ccccn2c1C(=O)NCc1ccc(N2CCN(c3ccc(C(F)(F)F)cc3)CC2)cc1` [Compound 29]: the MIC80 is under 1 µM.

For `CCc1nc2ccccn2c1C(=O)NCc1ccc(N2CCN(c3ccc(OC)cc3)CC2)cc1` [Compound 30], the MIC80 is under 1 µM.

Consider `CCc1nc2c(F)cccn2c1C(=O)NCc1ccc(N2CCN(c3ccc(C)cc3)CC2)cc1` [Compound 31], for which the MIC80 was under 1 µM.

Regarding `CCc1nc2c(F)cccn2c1C(=O)NCc1ccc(N2CCN(c3ccc(OC)cc3)CC2)cc1` [Compound 32], the MIC80 was under 1 µM.

As to `CCc1nc2ccc(Cl)cn2c1C(=O)NCc1ccc(N2CCN(c3ccc(OC)cc3)CC2)cc1` [Compound 33], the MIC80 was under 1 µM.

In the case of `CCc1nc2c(Br)cccn2c1C(=O)NCc1ccc(N2CCC(c3ccc(C)cc3)CC2)cc1` [Compound 34], the MIC80 is 1 to 20 µM (≈ 0.531 to 10.6 µg/mL).

`CCc1nc2cc(Cl)ccn2c1C(=O)NCc1ccc(N2CCN(c3ccc(C)cc3)CC2)cc1` [Compound 35]: the MIC80 was under 1 µM.

As to `CCc1nc2ccc(Cl)cn2c1C(=O)NCc1ccc(N2CCN(c3ccc(C)cc3)CC2)cc1` [Compound 36], the MIC80 was under 1 µM.

Consider `CCc1nc2ccccn2c1C(=O)NCc1ccc(N2CCN(c3ccc(Cl)cc3)CC2)cc1` [Compound 37], for which the MIC80 is under 1 µM.

With `CCc1nc2c(C)cccn2c1C(=O)NCc1ccc(N2CCN(c3ccc(OC)cc3)CC2)cc1` [Compound 38], the MIC80 was under 1 µM.

Take `CCc1nc2c(C)cccn2c1C(=O)NCc1ccc(N2CCN(c3ccc(C)cc3)CC2)cc1` [Compound 39]: the MIC80 was under 1 µM.

As for `CCc1nc2c(C)cccn2c1C(=O)NCc1ccc(N2CCN(c3ccc(C(F)(F)F)cc3)CC2)cc1` [Compound 40], the MIC80 was under 1 µM.

Regarding `CCc1nc2c(C)cccn2c1C(=O)NCc1ccc(N2CCN(c3ccccc3)CC2)cc1` [Compound 41], the MIC80 is under 1 µM.

`CCc1nc2ccc(F)cn2c1C(=O)NCc1ccc(N2CCN(c3ccc(OC(F)(F)F)cc3)CC2)cc1` [Compound 42]: the MIC80 was under 1 µM.

For `CCc1nc2c(C)cccn2c1C(=O)NCc1ccc(N2CCN(c3ccc(Cl)cc3)CC2)cc1` [Compound 43], the MIC80 was under 1 µM.

With `CCc1nc2c(C)cccn2c1C(=O)NCc1ccc(N2CCN(c3ccc(OC(F)(F)F)cc3)CC2)cc1` [Compound 44], the MIC80 was under 1 µM.

For the compound `CCc1nc2ccc(Cl)cn2c1C(=O)NCc1ccc(N2CCN(c3ccc(Cl)cc3)CC2)cc1` [Compound 45], the MIC80 is under 1 µM.

On to `CCc1nc2cc(Cl)ccn2c1C(=O)NCc1ccc(N2CCN(c3ccc(OC)cc3)CC2)cc1` [Compound 46], for which the MIC80 was under 1 µM.

For `CCc1nc2c(Cl)cccn2c1C(=O)NCc1ccc(N2CCN(c3ccc(Cl)cc3)CC2)cc1` [Compound 47], the MIC80 was under 1 µM.

Regarding `CCc1nc2ccc(Cl)cn2c1C(=O)NCc1ccc(N2CCN(c3ccc(C(F)(F)F)cc3)CC2)cc1` [Compound 48], the MIC80 is under 1 µM.

Turning to `CCc1nc2c(Cl)cccn2c1C(=O)NCc1ccc(N2CCN(c3ccc(C(F)(F)F)cc3)CC2)cc1` [Compound 49], the MIC80 is under 1 µM.

For the compound `CCc1nc2c(Cl)cccn2c1C(=O)NCc1ccc(N2CCN(c3ccc(OC)cc3)CC2)cc1` [Compound 50], the MIC80 was under 1 µM.

In the case of `CCc1nc2cc(C)ccn2c1C(=O)NCc1ccc(N2CCC(c3ccc(C(F)(F)F)cc3)CC2)cc1` [Compound 51], the MIC80 was under 1 µM.

With `CCc1nc2cc(C)ccn2c1C(=O)NCc1ccc(N2CCC(c3ccc(Cl)cc3)CC2)cc1` [Compound 52], the MIC80 was under 1 µM.

Turning to `CCc1nc2c(Cl)cccn2c1C(=O)NCc1ccc(N2CCC(c3ccc(Cl)cc3)CC2)cc1` [Compound 53], the MIC80 is under 1 µM.

As to `CCc1nc2cc(C)ccn2c1C(=O)NCc1ccc(N2CCN(c3ccc(OC)cc3)CC2)cc1` [Compound 54], the MIC80 was under 1 µM.

Take `CCc1nc2ccc(C)cn2c1C(=O)NCc1ccc(N2CCN(c3ccc(OC(F)(F)F)cc3)CC2)cc1` [Compound 55]: the MIC80 was under 1 µM.

Consider `CCc1nc2ccc(C)cn2c1C(=O)NCc1ccc(N2CCN(c3ccc(OC)cc3)CC2)cc1` [Compound 56], for which the MIC80 is under 1 µM.

In the case of `CCc1nc2cc(OC)ccn2c1C(=O)NCc1ccc(N2CCN(c3ccc(C(F)(F)F)cc3)CC2)cc1` [Compound 57], the MIC80 is under 1 µM.

`CCc1nc2c(OC)cccn2c1C(=O)NCc1ccc(N2CCN(c3ccc(OC)cc3)CC2)cc1` [Compound 58]: the MIC80 was in the range of 1 to 20 µM (≈ 0.5 to 9.99 µg/mL).

Turning to `CCc1nc2cc(C)ccn2c1C(=O)NCc1ccc(N2CCN(c3ccc(Cl)cc3)CC2)cc1` [Compound 59], the MIC80 is under 1 µM.

`CCc1nc2ccc(C)cn2c1C(=O)NCc1ccc(N2CCN(c3ccc(C(F)(F)F)cc3)CC2)cc1` [Compound 60]: the MIC80 is under 1 µM.

`CCc1nc2cc(C)ccn2c1C(=O)NCc1ccc(N2CCN(c3ccc(C(F)(F)F)cc3)CC2)cc1` [Compound 61]: the MIC80 was under 1 µM.

As to `CCc1nc2ccccn2c1C(=O)NCc1ccc(N2CCN(c3ccccc3)CC2)cc1` [Compound 62], the MIC80 was under 1 µM.

In the case of `CCc1nc2c(F)cccn2c1C(=O)NCc1ccc(N2CCN(c3ccc(Cl)cc3)CC2)cc1` [Compound 63], the MIC80 was under 1 µM.

`CCc1nc2c(Cl)cccn2c1C(=O)NCc1ccc(N2CCN(c3ccccc3)CC2)cc1` [Compound 64]: the MIC80 was under 1 µM.

`CCc1nc2ccc(C)cn2c1C(=O)NCc1ccc(N2CCN(c3ccc(C)cc3)CC2)cc1` [Compound 65]: the MIC80 is under 1 µM.

Consider `CCc1nc2ccc(C)cn2c1C(=O)NCc1ccc(N2CCN(c3ccc(Cl)cc3)CC2)cc1` [Compound 66], for which the MIC80 is under 1 µM.

As to `CCc1nc2cc(C)ccn2c1C(=O)NCc1ccc(N2CCN(c3ccccc3)CC2)cc1` [Compound 67], the MIC80 is under 1 µM.

As to `CCc1nc2ccc(Cl)cn2c1C(=O)NCc1ccc(N2CCN(c3ccccc3)CC2)cc1` [Compound 68], the MIC80 was under 1 µM.

Turning to `CCc1nc2cc(F)ccn2c1C(=O)NCc1ccc(N2CCN(c3ccccc3)CC2)cc1` [Compound 69], the MIC80 was under 1 µM.

As to `CCc1nc2c(F)cccn2c1C(=O)NCc1ccc(N2CCN(c3ccccc3)CC2)cc1` [Compound 70], the MIC80 was under 1 µM.

These data come from patent US20160185774A1, “Anti-Infective Compounds” (priority 2013, published 2016).
